# Measurements reported in the PolyMetriX glass transition set.
# ± gives the standard deviation of the reports.
row,SMILES,glass transition temperature [°C]
1,*Oc1ccc(C(C)(C)c2ccc(Oc3ccc(C(O)C(O)c4ccc(*)cc4)cc3)cc2)cc1 (repeat unit),151.00
2,*CC(*)n1c2ccccc2c2cc3ccccc3cc21 (repeat unit),253.00
3,*c1ccc2c(c1)C(=O)N(c1ccc(N3C(=O)c4ccc(-c5c(-c6ccccc6)c(-c6ccccc6)c(-c6ccc(Oc7ccc(-c8c(-c9ccccc9)c(-c9ccccc9)c(*)c(-c9ccccc9)c8-c8ccccc8)cc7)cc6)c(-c6ccccc6)c5-c5ccccc5)cc4C3=O)cc1)C2=O (repeat unit),353.00
4,*C(=O)c1ccc2c(c1)C(=O)N(c1ccc(Oc3cccc(Oc4ccc(N5C(=O)c6ccc(*)cc6C5=O)cc4)c3C#N)cc1)C2=O (repeat unit),245.00
5,*CC(*)c1ccc(COCCC)cc1 (repeat unit) [Poly(p-n-propoxymethyl styrene) ],22 ± 1.2
6,*CCOCCOCCOc1ccc(NC(=O)c2cccc(C(=O)Nc3ccc(O*)cc3)c2)cc1 (repeat unit),129.00
7,*C1C(=O)N(CCOc2ccc(-c3ccc(C#N)cc3)cc2)C(=O)C1* (repeat unit),150.00
8,*c1ccc(N2C(=O)c3ccc(-c4ccc5c(c4)C(=O)N(c4ccc6[nH]c(*)nc6c4)C5=O)cc3C2=O)cc1 (repeat unit),397.50
9,*C(F)C(*)(F)F (repeat unit),31.5
10,*CC(*)c1ccncc1 (repeat unit) [Poly(p-vinyl pyridine) ],142 ± 5.4
11,*C[Si](*)(C)CCCOCCOCCOC (repeat unit),-73.30
12,*Oc1ccc(Oc2ccc(Oc3ccc(NC(=O)c4cc(C(=O)Nc5ccc(*)cc5)cc(C(C)(C)C)c4)cc3)cc2)cc1 (repeat unit),230.00
13,*CCCS(=O)(=O)CCCS(=O)(=O)CCCOC(=O)c1ccccc1C(=O)O* (repeat unit),52.00
14,*c1cc(C(c2ccc(OCCN(c3ccccc3)c3ccc(/C=C/C4=CC(=C(C#N)C#N)CC(C)(C)C4)cc3)c(N3C(=O)c4ccc(Oc5ccc6c(c5)C(=O)N(*)C6=O)cc4C3=O)c2)(C(F)(F)F)C(F)(F)F)ccc1OCCN(c1ccccc1)c1ccc(/C=C/C2=CC(=C(C#N)C#N)CC(C)(C)C2)cc1 (repeat unit),220.00
15,*c1cccc(P(=O)(c2ccc(Oc3ccc(C45CC6CC(CC(C6)C4)C5)cc3)cc2)c2cccc(N3C(=O)c4ccc(Oc5ccc6c(c5)C(=O)N(*)C6=O)cc4C3=O)c2)c1 (repeat unit),290.00
16,*C#C/C(COS(=O)(=O)c1ccc(C)cc1)=C(/*)COS(=O)(=O)c1ccc(C)cc1 (repeat unit),-73.00
17,*Oc1ccc(Cc2ccc(OC(=O)c3cccc(C(*)=O)c3)cc2)cc1 (repeat unit),150.00
18,*c1ccc2oc(-c3ccc(C(c4ccccc4)(c4ccc(-c5nc6cc(C(*)(C(F)(F)F)C(F)(F)F)ccc6o5)cc4)C(F)(F)F)cc3)nc2c1 (repeat unit),310.00
19,*Oc1c(C)cc(C2(c3cc(C)c(OC(=O)c4ccc(C(*)=O)cc4)c(C)c3)CCC3CCCCC3C2)cc1C (repeat unit),287.00
20,*Oc1ccc2ccc(OC(=O)c3ccc(Oc4ccc(C(*)=O)cc4)cc3)cc2c1 (repeat unit),142.00

row,SMILES,glass transition temperature [°C]
1,*CC(*)C(C)C (repeat unit) [Poly(isopropylethylene)],49 ± 18
2,*CC(*)C(=O)Oc1ccc(C(=O)OCCCC)cc1 (repeat unit),13.00
3,*CC(*)OC(=O)C1(C)CCCCC1 (repeat unit),86.00
4,*CC(*)C(=O)Oc1ccc(C(=O)OCc2ccccc2)cc1 (repeat unit),16.2
5,*CC(*)c1ccc(C(=O)OC(C)C)cc1 (repeat unit),95.00
6,*C(=O)c1ccc2c(c1)C(=O)N(c1cccc(C(=O)c3ccc(Oc4ccc(N5C(=O)c6ccc(*)cc6C5=O)cc4C(F)(F)F)cc3)c1)C2=O (repeat unit),242.00
7,*CC(*)C(=O)OCCOCC1(CC)COC1 (repeat unit),-16.00
8,*CC(*)(C)C(=O)OCCn1c2ccccc2c2ccccc21 (repeat unit),148.00
9,*Oc1ccc(CC(NC(=O)CCc2ccc(OC(=O)COCC(*)=O)cc2)C(=O)OCCCCCC)cc1 (repeat unit),45.00
10,*CC(*)c1ccc(CCCCCCCC)cc1 (repeat unit),-45.00
11,*c1ccc(-c2nc3ccc(Oc4ccc5nc(*)c(-c6ccccc6)c(-c6ccccc6)c5c4)cc3c(-c3ccccc3)c2-c2ccccc2)cc1 (repeat unit),345.00
12,*Oc1ccc(C(=O)c2cccc(C(=O)c3ccc(*)c(C(C)C)c3)c2)cc1C (repeat unit),147.00
13,*CCC1CC(*)C2C3CC(c4ccc(COC(C)CC)cc4)C(C3)C12 (repeat unit),139.00
14,*CCc1ccc(*)s1 (repeat unit),26.00
15,*Oc1ccc(Oc2ccc(Oc3ccc(NC(=O)c4ccc(-c5ccc(C(=O)Nc6ccc(*)cc6)c(C)c5)cc4C)cc3)cc2)cc1 (repeat unit),200.00
16,*c1ccc(Oc2cccc(-n3c(=O)c4cc5c(=O)n(-c6cccc(Oc7ccc(-c8nc9cc%10sc(*)nc%10cc9s8)cc7)c6)c(=O)c5cc4c3=O)c2)cc1 (repeat unit),400.00
17,*CCC(C)O[Si](C)(C)O* (repeat unit),-88.00
18,*CC(OCC)C(C)(C(=O)OC)C(*)(C)C(=O)OC (repeat unit),131.00
19,*Oc1ccc(Oc2ccc(/C(=N/c3ccc(/N=C(\c4ccccc4)c4ccc(*)cc4)cc3)c3ccccc3)cc2)cc1 (repeat unit),176.00

# The remaining lines, values ahead:
row,glass transition temperature [°C],SMILES
1,190.00,*c1ccc(Oc2ccc(C(C)(C)c3ccc(Oc4ccc(-c5nnc(*)n5-c5cccc(C(F)(F)F)c5)cc4)cc3)cc2)cc1 (repeat unit)
2,166.00,*Oc1ccc(Oc2ccc(C(=O)c3ccc(C(=O)c4ccc(*)cc4)cc3)cc2)cc1-c1ccccc1 (repeat unit)
3,12.50,*Oc1ccc(CC(NC(=O)CCc2ccc(OC(=O)CCCCCCCCC(*)=O)cc2)C(=O)OCCCCCCCCCCCC)cc1 (repeat unit)
4,36.00,*CC(*)(C)C(=O)OCCCCCCOc1ccc(OC(=O)c2ccc(OCCCC)cc2)cc1 (repeat unit)
5,30.00,*CC(=O)NCCCCCCNC(=O)COC(=O)CCC(=O)O* (repeat unit)
6,58.60,*CC(OC(C)=O)C(COC(=O)O*)OC(C)=O (repeat unit)
7,196.00,*Oc1c(Br)cc(S(=O)(=O)c2cc(Br)c(OC(*)=O)c(Br)c2)cc1Br (repeat unit)
8,235.00,*Nc1ccc(Cc2ccc(NC(=O)c3cc(NC(=O)CCN4C(=O)c5ccccc5C4=O)cc(C(*)=O)c3)cc2)cc1 (repeat unit)
9,183.00,*CC(*)(C)C(=O)OC12CC3CC(CC(C3)C1)C2 (repeat unit)
10,45.90,*C(=O)c1ccc(N(*)CCCCCCC)cc1 (repeat unit)
11,251.00,*c1ccc(CC(=O)Nc2ccc(NC(=O)Cc3ccc(-c4sc(*)c(-c5ccccc5)c4-c4ccccc4)cc3)cc2)cc1 (repeat unit)
12,297.50 ± 18,*C(=O)c1ccc2c(c1)C(=O)N(c1ccc(Cc3ccc(N4C(=O)c5ccc(*)cc5C4=O)c(C)c3)cc1C)C2=O (repeat unit)
13,260.00,*C(=O)Nc1ccc(Oc2ccc(S(=O)(=O)c3ccc(Oc4ccc(NC(=O)c5ccc6c(c5)C(=O)N(c5ccc(Oc7cccc8c(Oc9ccc(N%10C(=O)c%11ccc(*)cc%11C%10=O)cc9)cccc78)cc5)C6=O)cc4)cc3)cc2)cc1 (repeat unit)
14,108.50,*c1ccc2c(c1)C(=O)N(c1cccc(C(F)(F)C(F)(F)C(F)(F)C(F)(F)C(F)(F)c3cccc(N4C(=O)c5ccc(C(F)(F)C(F)(F)C(F)(F)C(F)(F)C(F)(F)C(F)(F)C(*)(F)F)cc5C4=O)c3)c1)C2=O (repeat unit)
15,215.00,*c1cc(C(c2ccc(OCCN(C)c3ccc(/C=C/C4=CC(=C(C#N)C#N)CC(C)(C)C4)cc3)c(N3C(=O)c4ccc(Oc5ccc6c(c5)C(=O)N(*)C6=O)cc4C3=O)c2)(C(F)(F)F)C(F)(F)F)ccc1OCCN(C)c1ccc(/C=C/C2=CC(=C(C#N)C#N)CC(C)(C)C2)cc1 (repeat unit)
16,78.00,*CCCCCCCCCCCCCCCCCCNC(=O)Cc1ccc(CC(=O)N*)cc1 (repeat unit)
17,250.00,*c1ccc(NC2CC(=O)N(c3ccc(Cc4ccc(N5C(=O)CC(Nc6ccc(-c7nc(-c8ccc(/C=C/c9ccc([N+](=O)[O-])cc9)cc8)[nH]c7*)cc6)C5=O)cc4)cc3)C2=O)cc1 (repeat unit)
18,228.51,*c1ccc(Oc2ccc(Oc3ccc(Oc4ccc(N5C(=O)c6ccc(-c7ccc8c(c7)C(=O)N(*)C8=O)cc6C5=O)cc4)cc3)cc2)cc1 (repeat unit)
19,92.00,*Nc1ccc(CC(C)(C)NC(=O)CCCCCCCCC(*)=O)cc1 (repeat unit)
20,124.00,*Oc1ccc(Oc2ccc(C(=O)c3ccc(Oc4ccc(Oc5cccc(*)n5)cc4)cc3)cc2)cc1 (repeat unit)
21,55.70,*/C=C/c1ccc(/C=C/[Si](C)(CCC(F)(F)F)c2ccc([Si](*)(C)CCC(F)(F)F)cc2)cc1 (repeat unit)
22,225.00,*c1ccc(NC(=O)c2ccc(OCCOc3ccc(C(=O)Nc4ccc5[nH]c(*)nc5c4)cc3)cc2)cc1 (repeat unit)
23,-76.00,*/C=C/CCCCCCCCCC(CCCCCCCCC*)COCCOCCOCCOCCOCCCCCC (repeat unit)
24,139.00,*Oc1cccc2ccc(Oc3ccc(NC(=O)c4ccc(Oc5ccc(C(C)(C)c6cccc(C(C)(C)c7ccc(Oc8ccc(C(=O)Nc9ccc(*)cc9)cc8)cc7)c6)cc5)cc4)cc3)cc12 (repeat unit)
